Results on 53 compounds are retold here after PubChem BioAssay AID977624 (Broad Institute, 2014).

Test [1] relates to E. coli mixed culture (wild-type GFP + h34 RFP) total growth, OD600, 24 h. Put plainly: wild-type E. coli growth inhibition versus h34 humanized strain – h34 mutant RFP, wild-type GFP, cherry-pick, dose response (AID 977624). As to conditions: E. coli mixed culture (wild-type GFP + h34 RFP), 24 h; measured here: total OD600 growth.
Test [2] deals with E. coli wild-type GFP strain growth, fluorescence, 24 h. Described as above.

Structures are written as SMILES. Records with an inconclusive call do not appear. Activity calls are given as the source filed them.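 Rule for the calls: active = compound lowering the normal-ribosome reporter at least twice as much as the humanized-ribosome reporter, growth loss under a set limit; inconclusive = no clear call, values can overlap the other calls; inactive = the rest.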

For the compound `O=C(O)c1cc(-c2ccc(Cl)s2)nc2ccccc12`, the AC50 in test [1] is over 100 µM; in test [2], > 100 µM (inactive).
Consider `O=C1c2ccccc2NC(c2ccc(-c3cccc([N+](=O)[O-])c3)o2)N1O` (stereo not given), for which, in test [1], the half-maximal activity concentration (AC50) is over 100 µM.
For the compound `O=C(Cc1c(Cl)cccc1Cl)Nc1cccc(S(=O)(=O)N2CCOCC2)c1`, the figures for the concentration at half-maximal activity (AC50) in test [1] and in test [2] were 48.6 µM and > 100 µM (inactive), respectively.
Taken in the same sequence, the figures for `Cc1ccc(Cl)cc1N1CCN(C(=O)c2ccc3nc[nH]c3c2)CC1` were over 100 µM and > 100 µM (inactive).
The corresponding values for `Cc1ccsc1C(=O)C1CCCN(Cc2cc(F)ccc2-n2cccn2)C1` (stereo not given) are over 100 µM and > 100 µM (inactive).
The corresponding values for `Clc1ccc2nc(CN3CCCc4ccccc43)cn2c1` are 36.1 µM and > 100 µM (inactive).
On to `CO[C@@H]1CN(C)C(=O)c2cc(NC(=O)C3CCCC3)ccc2OC[C@@H](C)N(C(=O)Nc2ccc(C(F)(F)F)cc2)C[C@H]1C`, for which, in test [1], the concentration at half-maximal activity (AC50) is over 100 µM.
With `O=C1NC(CCc2ccccc2)C(=O)N1Cc1cccc2ccccc12` (stereo not given), the AC50 is over 100 µM in test [1] and > 100 µM (inactive) in test [2].
In the case of `O=C(Nc1cccc(Oc2ccc3c(c2)C(=O)NC3=O)c1)c1cccs1`, the AC50 is over 100 µM in test [1] and > 100 µM (inactive) in test [2].
With `O=C(O)c1cccnc1SCc1ccccc1Cl`, the figures for the AC50 in test [1] and in test [2] were over 100 µM and > 100 µM (inactive), respectively.
The corresponding values for `COc1ccccc1-c1nnc(C2CCN(S(=O)(=O)c3ccccc3[N+](=O)[O-])CC2)o1` are over 100 µM and > 100 µM (inactive).
The corresponding values for `O=C1c2cccc(OCC(=O)N3CCCc4ccccc43)c2CCN1Cc1cccnc1` are over 100 µM and > 100 µM (inactive).
For `Cc1cccc(-c2ccc([C@H]3[C@H](CO)N4CCCCN(S(=O)(=O)c5ccccc5C)C[C@@H]34)cc2)c1`, in test [1], the concentration at half-maximal activity (AC50) was over 52 µM.
On the same count and under the same terms, the figure for `O=C(c1ccc2c(c1)CCN2S(=O)(=O)c1ccccc1)N1CCN(c2ccccc2)CC1` is over 100 µM; for `CC(=O)Nc1cccc(NC(=O)CSc2ccc(-c3cccnc3)nn2)c1` it is over 100 µM; for `O=C(CC1C(=O)NCCN1CC1CCCCC1)NCc1ccc(F)cc1F` (stereo not given) it is over 100 µM.
The same measure, in the same setting: as for `CC1CCN(c2ccc3nnc(CCC(=O)Nc4cccc(F)c4)n3n2)CC1`, the figure is over 100 µM.
Regarding `CC(=O)N1CCN(c2cc(N3CCCC3)c(F)cc2[N+](=O)[O-])CC1`, the AC50 was over 100 µM in test [1] and > 100 µM (inactive) in test [2].
On to `C=CCn1c(SCC(=O)Nc2ccc3c(c2)OCCO3)nnc1-c1ccco1`, for which the AC50 in test [1] is over 100 µM.
In the case of `Cc1ccc(C2(c3noc(CN(C)Cc4cccnc4)n3)CCCC2)cc1`, the concentration at half-maximal activity (AC50) in test [1] is over 100 µM; in test [2], > 100 µM (inactive).
Regarding `CCCN(Cc1ccco1)S(=O)(=O)c1ccc(OC)c(OC)c1`, the concentration at half-maximal activity (AC50) in test [1] is over 100 µM.
As to `C[C@@H]1CCCCO[C@@H](CN(C)C(=O)c2ccccc2)[C@H](C)CN([C@@H](C)CO)C(=O)c2cc(NC(=O)c3ccccc3)ccc2O1`, the half-maximal activity concentration (AC50) was over 100 µM in test [1] and > 100 µM (inactive) in test [2].
`Cc1noc(C)c1NC(=O)N(C)C[C@H]1OCCCC[C@@H](C)Oc2ccc(NC(=O)Nc3cccc4ccccc34)cc2C(=O)N([C@@H](C)CO)C[C@H]1C`: in test [1], the half-maximal activity concentration (AC50) is over 100 µM.
Same read-out and setting: the figure for `C=CCN(CC(O)c1cccc([N+](=O)[O-])c1)C(C)CCc1ccccc1` (stereo not given) is over 100 µM.
With `COc1ccc(NC(=O)Nc2cccc3c2O[C@H](CN(C)S(=O)(=O)c2ccc(Cl)cc2)[C@H](C)CN([C@@H](C)CO)C3=O)cc1`, the AC50 in test [1] was over 100 µM; in test [2], > 52 µM (inactive).
Consider `COc1ccc(CCCc2nc3ccccc3[nH]2)cc1`, for which the concentration at half-maximal activity (AC50) in test [1] was over 100 µM; in test [2], > 100 µM (inactive).
The corresponding values for `O=C(c1cnc(Cc2c[nH]c3ccccc23)c(I)c1)N1CCCCC1` are over 100 µM and > 100 µM (inactive).
For `COc1ccccc1NC(=O)CSc1nccn1Cc1ccc(F)cc1`, in test [1], the AC50 was over 100 µM.
`Cc1cc(C)cc(NC(=O)c2cccc(NC(=O)c3ccco3)c2)c1`: the half-maximal activity concentration (AC50) in test [1] is over 100 µM; in test [2] it was > 100 µM (inactive).
Taken in the same sequence, the figures for `c1ccc(CN2CCN(C3CCCSc4ccccc43)CC2)cc1` (stereo not given) were 50.3 µM and > 100 µM (inactive).
With `CCSc1nc2ccccc2c(=O)n1CCc1ccc(OC)c(OC)c1`, in test [1], the AC50 is over 100 µM.
With `COc1cc(C(N)=O)cc(Br)c1OCc1ccccc1`, the concentration at half-maximal activity (AC50) in test [1] was over 100 µM; in test [2], > 100 µM (inactive).
On to `CCn1cc(CCC(=O)NCCc2ccccc2)c2ccccc21`, for which, in test [1], the AC50 was over 100 µM.
With `Cn1nc(C(=O)Nc2cccc(S(=O)(=O)N3CCCCC3)c2)c2ccccc2c1=O`, the AC50 was over 100 µM in test [1] and > 100 µM (inactive) in test [2].
Regarding `Cc1sc2ncnc(N3CCCC(C)C3)c2c1C` (stereo not given), the AC50 is over 100 µM in test [1] and > 100 µM (inactive) in test [2].
Taken in the same sequence, the figures for `CN(CCOc1ccccc1)C(=O)c1ccc(OC2CCN(C(=O)C3CC3)CC2)cc1` were over 100 µM and > 100 µM (inactive).
The corresponding values for `Cc1cc(NC(=O)CN2CCN(c3cccc(Cl)c3)CC2)no1` are 29.5 µM and > 100 µM (inactive).
`c1ccc(-n2c(SCc3nc(-c4cccs4)no3)nnc2-c2ccco2)cc1`: the concentration at half-maximal activity (AC50) was over 100 µM in test [1] and > 100 µM (inactive) in test [2].
Taken in the same sequence, the figures for `CCCCNc1ccc2c(c1)OC[C@@H](Cc1ccccc1)NS2(=O)=O` were 44.4 µM and > 100 µM (inactive).
For the compound `Cc1cccc(OCCC(=O)Nc2ccc(F)c(F)c2)c1`, the AC50 in test [1] was over 100 µM.
Same read-out and setting: as for `O=C(Nc1cccc(Cl)c1)N1C[C@@H]2[C@H](c3ccccc31)[C@H](CO)N2Cc1ccncc1`, the figure is over 100 µM.
Same read-out and setting: as for `CC(=O)Nc1cccc(-c2ccnc3c2CC(C(=O)Nc2ccc4c(c2)OCO4)O3)c1` (stereo not given), the figure is over 100 µM.
For the compound `CCOC(=O)c1nc(C)sc1-c1ccnn1S(=O)(=O)c1cccc(Cl)c1`, the AC50 is 52.2 µM in test [1] and > 100 µM (inactive) in test [2].
For `COc1ccc(-c2nc(NC(C)=O)sc2-c2ccccc2)cc1`, the AC50 is over 100 µM in test [1] and > 100 µM (inactive) in test [2].
On to `CC(=O)c1cccc(NC(=O)COC(=O)CCC(=O)c2ccc(F)cc2)c1`, for which the concentration at half-maximal activity (AC50) in test [1] was over 100 µM.
Still for that read-out and setting: the figure for `Cc1ccccc1COc1ccc(-c2nn[nH]n2)cc1` is over 100 µM; for `CCOC(=O)c1c(C)[nH]c(C)c1S(=O)(=O)NCCN1CCN(c2ccccc2F)CC1` it is over 100 µM.
On the same count and under the same terms, as for `CCOc1ccc(CCNC(=O)CCn2ccc3cc(S(=O)(=O)N4CCCC4)ccc32)cc1`, the figure is over 100 µM.
Same read-out and setting: as for `O=C(Nc1cc(S(=O)(=O)N2CCOCC2)ccc1N1CCOCC1)c1ccc([N+](=O)[O-])s1`, the figure is over 100 µM; as for `CCOC(=O)c1cc(-c2ccc(OC)cc2)n[nH]1`, over 100 µM; as for `CN(C)Cc1nc2ccccc2c(=O)n1Cc1nc(-c2cccc([N+](=O)[O-])c2)cs1`, over 100 µM.
Take `Cc1nc(SCC(=O)Nc2ccc3c(c2)OCCO3)nc(C)c1C`: in test [1], the AC50 is over 100 µM.
Take `CC(C)(C)C1CCC(OCC(O)CN2CCN(c3ccccn3)CC2)CC1` (stereo not given): in test [2], the AC50 was > 100 µM (inactive).
